For 65 compounds, IC50 and 6-month survival results are on record in US20130035329A1, “THERAPEUTICALLY ACTIVE COMPOSITIONS AND THEIR METHODS OF USE” (priority 2009, published 2013).

The target of one assay is IDH1 R132H (Homo sapiens, UniProt O75874, R132H). Description: High Throughput Screening (HTS) for IDH1 R132H inhibitors (resazurin/NADPH fluorescence assay). The class given is biochemical. The following applies: IDH1m; assay similar to Example 1; class symbols. As to the method: A compound described herein may be an inhibitor of IDH1m. […] B refers to an inhibitor of IDH1m with an IC50 between 1 μM and 50 μM. C refers to an inhibitor of IDH1m with an IC50 greater than 50 μM. D refers to a compound wherein an IC50 is not available.
Chain of IDH1 R132H (O75874 whole entry R132H): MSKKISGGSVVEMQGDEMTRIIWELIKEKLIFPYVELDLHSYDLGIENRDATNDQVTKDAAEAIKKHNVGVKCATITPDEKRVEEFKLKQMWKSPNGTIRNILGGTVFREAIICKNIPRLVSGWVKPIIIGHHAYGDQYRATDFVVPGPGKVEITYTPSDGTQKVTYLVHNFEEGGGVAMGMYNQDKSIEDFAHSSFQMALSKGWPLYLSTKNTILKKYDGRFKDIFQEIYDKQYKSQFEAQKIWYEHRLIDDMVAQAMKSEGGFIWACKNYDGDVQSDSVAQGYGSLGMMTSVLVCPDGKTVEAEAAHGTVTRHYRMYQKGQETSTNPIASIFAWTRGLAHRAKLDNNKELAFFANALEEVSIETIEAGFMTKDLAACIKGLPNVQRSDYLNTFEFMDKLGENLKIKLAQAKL
Assays were conducted in a volume of 76 μl assay buffer (150 mM NaCl, 10 mM MgCl2, 20 mM Tris pH 7.5, 0.03% bovine serum albumin) as follows in a standard 384-well plate: To 25 ul of substrate mix (8 uM NADPH, 2 mM aKG), 1 μl of test compound was added in DMSO. The plate was centrifuged briefly, and then 25 μl of enzyme mix was added (0.2 μg/ml ICDH1 R132H) followed by a brief centrifugation and shake at 100 RPM. The reaction was incubated for 50 minutes at room temperature, then 25 μl of detection mix (30 μM resazurin, […]) was added and the mixture further incubated for 5 minutes at room temperature. The conversion of resazurin to resorufine was detected by fluorescent spectroscopy at Ex544 Em590 c/o 590.
(The colour change of resazurin is a common sign of viable cells or microbes.)

Another assay concerns recurrent glioma. The following applies: recurrent glioma patients; bevacizumab used with irinotecan; cited from earlier work.

By IC50 is commonly meant the point on the concentration scale where inhibition reaches its midpoint. A high value points to weaker potency. As for `COc1ccc(NS(=O)(=O)c2ccc(C)c(C(=O)N3CCN(c4ccccn4)CC3)c2)cc1`, the IC50 against IDH1 R132H is above 50 µM.
The compound `CCCCc1ccc(NS(=O)(=O)c2ccc(C)c(C(=O)N3CCN(c4ccnc(N(C)C)c4)CC3)c2)cc1` displayed a 50% inhibitory concentration (IC50) against IDH1 R132H of 1 to 50 µM.
Same read-out and setting: next, `CCCCc1ccc(NS(=O)(=O)c2ccc(C)c(C(=O)N3CCN(C(=O)NCC(C)C)CC3)c2)cc1`: 1 to 50 µM.
`CCCCc1ccc(NS(=O)(=O)c2ccc(C)c(C(=O)N3CCN(Cc4ccccc4C)CC3)c2)cc1` came in with a half-inhibitory concentration (IC50) on IDH1 R132H of 1 to 50 µM.
On the same count and under the same terms, the same measure for `CCCCOc1ccc(NS(=O)(=O)c2ccc(C)c(C(=O)N3CCN(c4ccccc4OC)CC3)c2)cc1`: 1 to 50 µM; for `CC(C)(C)c1ccc(NS(=O)(=O)c2cccc(C(=O)N3CCN(c4ccccc4)CC3)c2)cc1`: 1 to 50 µM; for `Cc1ccc(S(=O)(=O)Nc2ccccc2F)cc1C(=O)N1CCN(c2ccccn2)CC1`: above 50 µM.
Regarding `CCCCc1ccc(NS(=O)(=O)c2ccc(C)c(C(=O)N3CCN(CC(C)c4ccccc4)CC3)c2)cc1` (centres unmarked), the concentration for half-maximal inhibition (IC50) against IDH1 R132H was in the range of 1 to 50 µM.
Still for that read-out and setting: next, `CCCCc1ccc(NS(=O)(=O)c2ccc(C)c(C(=O)N3CCN(c4ccccc4OCC4CC4)CC3)c2)cc1`: 1 to 50 µM; `COCOc1ccc(NS(=O)(=O)c2ccc(C)c(C(=O)N3CCN(c4ccccc4OC)CC3)c2)cc1`: 1 to 50 µM; `CCCCc1ccc(NS(=O)(=O)c2ccc(C)c(C(=O)N3CCN(C(=O)OC(C)C)CC3)c2)cc1`: 1 to 50 µM.
Same read-out and setting: the same measure for `Cc1cc(F)ccc1NS(=O)(=O)c1cccc(C(=O)N2CCN(c3ccccc3)CC2)c1`: above 50 µM.
On the same count and under the same terms, next, `COc1ccccc1N1CCN(C(=O)c2cc(S(=O)(=O)Nc3ccc(OCc4cn(Cc5ccccc5)nn4)cc3)ccc2C)CC1`: 1 to 50 µM; `CCCCc1ccc(NS(=O)(=O)c2ccc(C)c(C(=O)N3CCN(C(=O)Oc4ccccc4)CC3)c2)cc1`: 1 to 50 µM; `COc1ccccc1N1CCCN(C(=O)c2cccc(S(=O)(=O)Nc3ccc(C)cc3)c2)CC1`: above 50 µM.
On IDH1 R132H, `CCCCc1ccc(OC(=O)Nc2cccc(C(=O)N3CCN(c4ccccc4OC)CC3)c2)cc1` registered an IC50 above 50 µM.
Regarding `CCCCc1ccc(NS(=O)(=O)c2ccc(C)c(C(=O)N3CCN(c4c(C)cccc4C)CC3)c2)cc1`, on IDH1 R132H, the IC50 was in the range of 1 to 50 µM.
The same measure, in the same setting: next, `CCCCc1ccc(C(=O)Nc2cccc(C(=O)N3CCN(c4ccccc4OC)CC3)c2)cc1`: 1 to 50 µM.
Same read-out and setting: the same measure for `CCCCc1ccc(NS(=O)(=O)c2ccc(C)c(C(=O)N3CCN(c4ccccc4C(C)C)CC3)c2)cc1`: 1 to 50 µM; for `CCCCc1ccc(NS(=O)(=O)c2ccc(C)c(C(=O)N3CCN(c4ccc(OC)cc4OC)CC3)c2)cc1`: 1 to 50 µM; for `CCCCc1ccc(NS(=O)(=O)c2ccc(C)c(C(=O)N3CCN(c4ccc(F)cc4)CC3)c2)cc1`: 1 to 50 µM.
Same read-out and setting: the same measure for `Cc1ccc(S(=O)(=O)Nc2ccc(Cl)cc2)cc1C(=O)N1CCN(c2ccccn2)CC1`: above 50 µM.
On IDH1 R132H, `CCCCc1ccc(NS(=O)(=O)c2ccc(C)c(C(=O)N3CCN(c4ccccc4CC)CC3)c2)cc1` returned an IC50 below 1 µM.
The same measure, in the same setting: the same measure for `CCCCc1ccc(NS(=O)(=O)c2ccc(C)c(C(=O)N3CCN(c4cccc(Cl)c4)CC3)c2)cc1`: 1 to 50 µM; for `CCCCc1ccc(NS(=O)(=O)c2cccc(C(=O)N3CCN(c4ncccn4)CC3)c2)cc1`: 1 to 50 µM; for `COc1ccccc1N1CCN(C(=O)c2cc(S(=O)(=O)Nc3ccccc3)ccc2C)CC1`: above 50 µM.
The same measure, in the same setting: the same measure for `CCCCc1ccc(NS(=O)(=O)c2ccc(C)c(C(=O)N3CCN(c4ccccc4Cl)CC3)c2)cc1`: below 1 µM; for `CCCCc1ccc(NS(=O)(=O)c2ccc(C)c(C(=O)N3CCN(c4ccccc4OCC)CC3)c2)cc1`: 1 to 50 µM.
On the same count and under the same terms, next, `CCCCc1ccc(NS(=O)(=O)c2ccc(C)c(C(=O)N3CCCN(c4ccccc4F)CC3)c2)cc1`: 1 to 50 µM.
As for `CCCCc1ccc(OC(=O)Nc2ccc(C)c(C(=O)N3CCN(c4ccccc4OC)CC3)c2)cc1`, the IC50 at IDH1 R132H is above 50 µM.
Same read-out and setting: next, `CCCCc1ccc(NS(=O)(=O)c2ccc(C)c(C(=O)N3CCN(c4ccncc4)CC3)c2)cc1`: 1 to 50 µM.
The same measure, in the same setting: next, `CCCCc1ccc(NS(=O)(=O)c2ccc(C)c(C(=O)N3CCN(C(=O)c4ccccc4)CC3)c2)cc1`: 1 to 50 µM; `CCCCc1ccc(C(=O)Nc2ccc(C)c(C(=O)N3CCN(c4ccccc4OC)CC3)c2)cc1`: 1 to 50 µM.
Turning to `COc1ccccc1N1CCN(C(=O)c2cccc(S(=O)(=O)Nc3ccccc3F)c2)CC1`, the IC50 at IDH1 R132H was above 50 µM.
The same measure, in the same setting: next, `CCc1ccc(NS(=O)(=O)c2ccc(C)c(C(=O)N3CCN(c4ccccc4OC)CC3)c2)cc1`: 1 to 50 µM; `CCCCc1ccc(NS(=O)(=O)c2cccc(C(=O)N3CCN(c4ncc(C(F)(F)F)cc4Cl)CC3)c2)cc1`: 1 to 50 µM; `COCCOCOc1ccc(NS(=O)(=O)c2ccc(C)c(C(=O)N3CCN(c4ccccc4C)CC3)c2)cc1`: 1 to 50 µM.
The compound `CCCCc1ccc(NS(=O)(=O)c2ccc(C)c(C(=O)N3CCN(c4ccc(OC)cc4O)CC3)c2)cc1` registered a half-maximal inhibitory concentration (IC50) against IDH1 R132H of 1 to 50 µM.
Regarding `COc1ccccc1N1CCN(C(=O)c2cc(S(=O)(=O)Nc3ccc(C)c4cccnc34)ccc2C)CC1`, on IDH1 R132H, the half-maximal inhibitory concentration (IC50) was in the range of 1 to 50 µM.
Compound `CCOc1ccc(NS(=O)(=O)c2ccc(C)c(C(=O)N3CCN(c4ccccn4)CC3)c2)cc1` returned a concentration for half-maximal inhibition (IC50) at IDH1 R132H above 50 µM.
The same measure, in the same setting: the same measure for `CCCCc1ccc(NS(=O)(=O)c2ccc(C)c(C(=O)N3CCN(c4ccccc4)CC3)c2)cc1`: 1 to 50 µM; for `CCCCc1ccc(NS(=O)(=O)c2ccc(C)c(C(=O)N3CCN(c4ccccc4Br)CC3)c2)cc1`: 1 to 50 µM.
Consider `CCCCc1ccc(NS(=O)(=O)c2ccc(C)c(C(=O)N3CCN(c4ccc(OC)c(OC)c4)CC3)c2)cc1`, for which the IC50 against IDH1 R132H lay in the range of 1 to 50 µM.
`COc1ccccc1N1CCN(C(=O)c2cc(S(=O)(=O)Nc3ccc(C(C)(C)C)cc3)ccc2C)CC1` displayed an IC50 at IDH1 R132H of 1 to 50 µM.
For the compound `CCCCc1ccc(NS(=O)(=O)c2ccc(C)c(C(=O)N3CCN(C(=O)Cc4ccccc4)CC3)c2)cc1`, the IC50 against IDH1 R132H lay in the range of 1 to 50 µM.
Regarding `COc1ccccc1NS(=O)(=O)c1cccc(C(=O)N2CCN(c3ccccc3OC)CC2)c1`, the concentration for half-maximal inhibition (IC50) at IDH1 R132H is above 50 µM.
On IDH1 R132H, `CCOC(=O)C(C)Oc1ccc(NS(=O)(=O)c2ccc(C)c(C(=O)N3CCN(c4ccccc4OC)CC3)c2)cc1` (centres unmarked) returned a half-maximal inhibitory concentration (IC50) of 1 to 50 µM.
At IDH1 R132H, `CCCCc1ccc(NS(=O)(=O)c2ccc(C)c(C(=O)N3CCN(c4ccccc4Oc4ccccc4)CC3)c2)cc1` had an IC50 of 1 to 50 µM.
`CCCc1ccccc1NS(=O)(=O)c1cccc(C(=O)N2CCN(c3ccccc3)CC2)c1` came in with a half-inhibitory concentration (IC50) against IDH1 R132H of 1 to 50 µM.
At IDH1 R132H, `CCCCc1ccc(NS(=O)(=O)c2ccc(C)c(C(=O)N3CCN(c4ccccc4OCC(C)C)CC3)c2)cc1` registered an IC50 of 1 to 50 µM.
In the case of `CCCCc1ccc(NS(=O)(=O)c2ccc(N3CCCC3)c(C(=O)N3CCN(c4ccccc4OC)CC3)c2)cc1`, on IDH1 R132H, the IC50 was 1 to 50 µM.
As to `COc1ccccc1N1CCN(C(=O)c2cc(S(=O)(=O)Nc3cccc4cccnc34)ccc2C)CC1`, the 50% inhibitory concentration (IC50) against IDH1 R132H fell in the range of 1 to 50 µM.
Still for that read-out and setting: the same measure for `CCCCc1ccc(NS(=O)(=O)c2ccc(C)c(C(=O)N3CCN(CCc4ccccc4)CC3)c2)cc1`: 1 to 50 µM.
Take “bevacizumab: "The anti-angiogenic agent bevacizumab"; listed among "exemplary antibodies"”: the 6-month survival in the assay on recurrent glioma was 46%.
For `CCCCc1ccc(NS(=O)(=O)c2ccc(C)c(C(=O)N3CCN(c4ccccc4OC)CC3)c2)c(N(C)C)c1`, on IDH1 R132H, the IC50 lay in the range of 1 to 50 µM.
The same measure, in the same setting: the same measure for `CCCCc1ccc(NS(=O)(=O)c2ccc(C)c(C(=O)N3CCN(c4ccc(OCCC)cc4)CC3)c2)cc1`: 1 to 50 µM; for `COc1ccccc1N1CCN(C(=O)c2cc(S(=O)(=O)Nc3ccc(C)c4cc[nH]c34)ccc2C)CC1`: 1 to 50 µM.
As for `O=C(c1cccc(S(=O)(=O)Nc2ccccc2F)c1)N1CCN(c2ccccn2)CC1`, the half-inhibitory concentration (IC50) at IDH1 R132H is above 50 µM.
On the same count and under the same terms, the same measure for `COc1ccccc1N1CCN(C(=O)c2cc(S(=O)(=O)Nc3cccc4cc[nH]c34)ccc2C)CC1`: 1 to 50 µM.
Still for that read-out and setting: next, `CCCCc1ccc(NS(=O)(=O)c2cccc(C(=O)N3CCN(c4ccccc4OC)CC3)c2)cc1`: 1 to 50 µM; `COc1ccccc1N1CCN(C(=O)c2cc(S(=O)(=O)Nc3ccc(OCC4CC4)cc3)ccc2C)CC1`: 1 to 50 µM.
`CCCCc1ccc(NS(=O)(=O)c2ccc(F)c(C(=O)N3CCN(c4ccccc4OC)CC3)c2)cc1` gave a concentration for half-maximal inhibition (IC50) on IDH1 R132H of 1 to 50 µM.
Still for that read-out and setting: the same measure for `CCCCc1ccc(NS(=O)(=O)c2ccc(C)c(C(=O)N3CCN(c4ccccc4OCCC)CC3)c2)cc1`: 1 to 50 µM; for `COc1ccc(NS(=O)(=O)c2cccc(C(=O)N3CCN(c4ccccc4OC)CC3)c2)cc1`: above 50 µM.
In turn, `CCCCc1ccc(NS(=O)(=O)c2ccc(C)c(C(=O)N3CCN(C(=O)c4cscn4)CC3)c2)cc1` came in with an IC50 at IDH1 R132H of 1 to 50 µM.
